Reference: PMC7587962, “Evaluation of Cytotoxicity and α-Glucosidase Inhibitory Activity of Amide and Polyamino-Derivatives of Lupane Triterpenoids” (Molecules, 2020)

Assays:
NCI-H322M = assay: NCI-60 SRB screen: non-small cell lung cancer NCI-H322M; type: cell-based, human
Breast cancer subpanel = assay: NCI-60 screen, subpanel Breast cancer
U251 = assay: NCI-60 SRB screen: CNS cancer U251; type: cell-based; details: Homo sapiens, U251
CCRF-CEM = assay: NCI-60 SRB screen: leukemia CCRF-CEM; type: cell-based; details: Homo sapiens, 48 h
NCI/ADR-RES = assay: NCI-60 SRB screen: ovarian cancer NCI/ADR-RES; type: cell-based, human
COLO 205 = assay: NCI-60 SRB screen: colon cancer COLO 205; type: cell-based, human; details: COLO 205
HCT-116 = assay: NCI-60 SRB screen: colon cancer HCT-116; type: cell-based; details: Homo sapiens, 48 h, HCT-116
SR = assay: NCI-60 SRB screen: leukemia SR; type: cell-based; details: Homo sapiens, 48 h
Colon Cancer subpanel = assay: NCI-60 screen, subpanel Colon Cancer
RXF 393 = assay: NCI-60 SRB screen: renal cancer RXF 393; type: cell-based, human; details: RXF 393
HOP-62 = assay: NCI-60 SRB screen: non-small cell lung cancer HOP-62; type: cell-based, human; details: HOP-62
SF-295 = assay: NCI-60 SRB screen: CNS cancer SF-295; type: cell-based, human; details: SF-295
A498 = assay: NCI-60 SRB screen: renal cancer A498; type: cell-based, human; details: A498
MALME-3M = assay: NCI-60 SRB screen: melanoma MALME-3M; type: cell-based, human; details: MALME-3M
SK-MEL-5 = assay: NCI-60 SRB screen: melanoma SK-MEL-5; type: cell-based, human; details: SK-MEL-5
Leukemia subpanel = assay: NCI-60 screen, subpanel Leukemia
SNB-19 = assay: NCI-60 SRB screen: CNS cancer SNB-19; type: cell-based, human; details: SNB-19
EKVX = assay: NCI-60 SRB screen: non-small cell lung cancer EKVX; type: cell-based, human
KM12 = assay: NCI-60 SRB screen: colon cancer KM12; type: cell-based, human; details: KM12
MDA-MB-231/ATCC = assay: NCI-60 SRB screen: breast cancer MDA-MB-231/ATCC; type: cell-based; details: Homo sapiens, 48 h
NCI-H226 = assay: NCI-60 SRB screen: non-small cell lung cancer NCI-H226; type: cell-based, human; details: NCI-H226
HT29 = assay: NCI-60 SRB screen: colon cancer HT29; type: cell-based; details: Homo sapiens, HT29
UO-31 = assay: NCI-60 SRB screen: renal cancer UO-31; type: cell-based, human; details: UO-31
UACC-257 = assay: NCI-60 SRB screen: melanoma UACC-257; type: cell-based, human; details: UACC-257
[1] = system: 60 human tumor cell lines; details: single dose 10 µM
IGROV1 = assay: NCI-60 SRB screen: ovarian cancer IGROV1; type: cell-based, human; details: IGROV1
DU-145 = assay: NCI-60 SRB screen: prostate cancer DU-145; type: cell-based, human; details: DU-145
TK-10 = assay: NCI-60 SRB screen: renal cancer TK-10; type: cell-based, human; details: TK-10
Prostate cancer subpanel = assay: NCI-60 screen, subpanel Prostate cancer
SW-620 = assay: NCI-60 SRB screen: colon cancer SW-620; type: cell-based; details: Homo sapiens, 48 h, SW-620
CNS cancer subpanel = assay: NCI-60 screen, subpanel CNS cancer
NSCL cancer subpanel = assay: NCI-60 screen, subpanel NSCL cancer
HCT-15 = assay: NCI-60 SRB screen: colon cancer HCT-15; type: cell-based, human; details: HCT-15
HCC-2998 = assay: NCI-60 SRB screen: colon cancer HCC-2998; type: cell-based, human; details: HCC-2998
Renal Cancer subpanel = assay: NCI-60 screen, subpanel Renal Cancer
SK-MEL-2 = assay: NCI-60 SRB screen: melanoma SK-MEL-2; type: cell-based, human; details: SK-MEL-2
HOP-92 = assay: NCI-60 SRB screen: non-small cell lung cancer HOP-92; type: cell-based, human; details: HOP-92
[2] = Homo sapiens, five concentrations, 48 h, SRB, read-out: GI50
[3] = single dose 10 µM, read-out: Percentage Cell Growth
[4] = five concentrations, SRB, read-out: GI50

## CC(=O)OCC12CCC(C(C)C(N)=O)C1C1CCC3C4(C)CCC(OC(C)=O)C(C)(C)C4CCC3(C)C1(C)CC2 [Compound 4, 3β,28-Diacetyloxy-(20R)-29-amino-29-oxolupane]
NCI-H322M; [2]
  GI50: 13 µM
NCI-H322M; single dose 10 µM
  Percentage Cell Growth: −78.19%
Breast cancer subpanel
  MID b, average sensitivity of all cell line of particular subpanel: 7.09 µM
  Selectivity, ratio MID a: MID b: 1.11
U251; U-251, 48 h, single dose 10 µM, read-out: Percentage Cell Growth
  activity at 10 µM: -51.4%
U251; U-251, five concentrations, 48 h, SRB, read-out: GI50
  GI50: 5.1 µM
CCRF-CEM; [3]
  activity at 10 µM: -12.4%
CCRF-CEM; [4]
  GI50: 5.19 µM
NCI/ADR-RES; [2]
  GI50: 7.74 µM
NCI/ADR-RES; single dose 10 µM
  Percentage Cell Growth: −57.29%
COLO 205; single dose 10 µM
  Percentage Cell Growth: −52.98%
COLO 205; [2]
  GI50: 4.31 µM
HCT-116; [3]
  activity at 10 µM: -84.2%
HCT-116; [4]
  GI50: 3.57 µM
SR; [3]
  activity at 10 µM: 10.8%
SR; [4]
  GI50: 3.32 µM
Colon Cancer subpanel
  MID b, average sensitivity of all cell line of particular subpanel: 5.37 µM
  Selectivity, ratio MID a: MID b: 1.47
RXF 393; [2]
  GI50: 4.28 µM
RXF 393; single dose 10 µM
  Percentage Cell Growth: −64.94%
HOP-62; single dose 10 µM
  Percentage Cell Growth: −72.98%
HOP-62; [2]
  GI50: 1.1 µM
SF-295; [2]
  GI50: 8.57 µM
SF-295; single dose 10 µM
  Percentage Cell Growth: −50.75%
A498; single dose 10 µM
  Percentage Cell Growth: −81.70%
A498; [2]
  GI50: 12.8 µM
MALME-3M; [2]
  GI50: 10.5 µM
MALME-3M; single dose 10 µM
  Percentage Cell Growth: −88.97%
SK-MEL-5; [2]
  GI50: 3.8 µM
SK-MEL-5; single dose 10 µM
  Percentage Cell Growth: −71.94%
Leukemia subpanel
  MID b, average sensitivity of all cell line of particular subpanel: 3.55 µM
  Selectivity, ratio MID a: MID b: 2.22
SNB-19; [2]
  GI50: 11.9 µM
SNB-19; single dose 10 µM
  Percentage Cell Growth: −39.95%
EKVX; [2]
  GI50: 9.28 µM
EKVX; single dose 10 µM
  Percentage Cell Growth: −25.21%
KM12; [2]
  GI50: 3.86 µM
KM12; single dose 10 µM
  Percentage Cell Growth: −62.05%
MDA-MB-231/ATCC; MDA-MB-231/ATCC, single dose 10 µM, read-out: Percentage Cell Growth
  activity at 10 µM: -88.6%
MDA-MB-231/ATCC; MDA-MB-231, MDA-MB-31/ATCC, five concentrations, SRB, read-out: GI50
  GI50: 11.8 µM
NCI-H226; [2]
  GI50: 7.28 µM
NCI-H226; single dose 10 µM
  Percentage Cell Growth: −58.51%
HT29; HT-29, 48 h, single dose 10 µM, read-out: Percentage Cell Growth
  activity at 10 µM: -77.7%
HT29; HT-29, five concentrations, 48 h, SRB, read-out: GI50
  GI50: 3.73 µM
UO-31; [2]
  GI50: 7.57 µM
UO-31; single dose 10 µM
  Percentage Cell Growth: −97.54%
UACC-257; [2]
  GI50: 4.83 µM
UACC-257; single dose 10 µM
  Percentage Cell Growth: −46.24%
[1]; cell lines with negative growth
  cancer cell lethality, range of percentage growth: −8.82% to −97.54%
[1]; number of cell lines
  cases of cancer cell lethality: 57
IGROV1; Homo sapiens, IGROV-1, five concentrations, 48 h, SRB, read-out: GI50
  GI50: 13.2 µM
IGROV1; single dose 10 µM
  Percentage Cell Growth: −71.25%
DU-145; single dose 10 µM
  Percentage Cell Growth: −69.87%
DU-145; [2]
  GI50: 9.94 µM
TK-10; [2]
  GI50: 14.7 µM
TK-10; single dose 10 µM
  Percentage Cell Growth: −35.40%
Prostate cancer subpanel
  MID b, average sensitivity of all cell line of particular subpanel: 6.31 µM
  Selectivity, ratio MID a: MID b: 1.25
SW-620; [3]
  activity at 10 µM: -55.1%
SW-620; [4]
  GI50: 7.7 µM
CNS cancer subpanel
  MID b, average sensitivity of all cell line of particular subpanel: 7.27 µM
  Selectivity, ratio MID a: MID b: 1.08
NSCL cancer subpanel
  MID b, average sensitivity of all cell line of particular subpanel: 7.50 µM
  Selectivity, ratio MID a: MID b: 1.05
HCT-15; single dose 10 µM
  Percentage Cell Growth: −44.10%
HCT-15; [2]
  GI50: 4.04 µM
HCC-2998; single dose 10 µM
  Percentage Cell Growth: −68.10%
HCC-2998; [2]
  GI50: 10.4 µM
Renal Cancer subpanel
  MID b, average sensitivity of all cell line of particular subpanel: 8.12 µM
  Selectivity, ratio MID a: MID b: 0.97
SK-MEL-2; [2]
  GI50: 10.8 µM
SK-MEL-2; single dose 10 µM
  Percentage Cell Growth: −77.63%
HOP-92; single dose 10 µM
  Percentage Cell Growth: −83.15%
HOP-92; [2]
  GI50: 5.21 µM
